Data from PMC8587515, “Cytotoxic and Anti-Inflammatory Activities of Dihydroisocoumarin and Xanthone Derivatives from Garcinia picrorhiza” (Molecules, 2021).

Columns and labels:
[1] = tested on: HT-29 (human colon adenocarcinoma); design: method as in PMID 30153471, PMID 33999337; key to IC50 ± SEM, HT-29: IC50 ≤ 10 µM = good cytotoxicity; 10 µM < IC50 ≤ 30 µM = weak cytotoxicity; inactive (IC50 > 30 µM); conditions: MTT; results based on previous work; cited from earlier work
[2] = tested on: four cancer cells (KB, HeLa S3, MCF-7, and Hep G2); experiment: MTT cytotoxicity, four cancer cells stated together; assay type: cell-based; conditions: Homo sapiens; range over KB, HeLa S3, MCF-7, Hep G2; read-out: IC50 values against four cancer cells
Procedure: The cytotoxic activity of the isolated compounds was evaluated using the MTT viability assay with doxorubicin as the positive control and the results are presented in Table 2.
The MTT colorimetric method was performed to evaluate cytotoxic activity of the isolated compounds against human epidermoid carcinoma (KB; ATCC CCL17), human cervical carcinoma (HeLa S3; ATCC CCL2-2), human colon adenocarcinoma (HT-29; ATCC HTB-38), human breast adenocarcinoma (MCF-7; ATCC HTB-22), and human hepatocellular carcinoma (Hep G2; ATCC HB-8065) cell lines according to the previous method. […] After centrifugation at 1400 rpm for 5 min at 4 °C, the supernatant was decanted and DMSO (100 µL/well) was added to allow formazan product solubilization, which was subsequently measured by a microplate reader (Tecan Trading AG, Switzerland) at wavelength 550 nm. […] The results are expressed as the mean values of three replicates for three independent experiments. IC50 values were determined by graphical analysis using SigmaPlot 10 (Systat Software Inc., San Jose, CA, USA), obtained by plotting the cell viability percentage versus sample concentration.

| SMILES | IC50 ± SEM, HT-29 [1] | IC50 [2] |
| --- | --- | --- |
| C[C@@H]1Oc2cc(O)c3c(=O)c4ccc(O)c(O)c4oc3c2C1(C)C [Compound 7, 2-deprenylrheediaxanthone B] | inactive | – |
| C[C@H]1Oc2c(c(O)c3c(=O)c4ccc(O)c(O)c4oc3c2CCC(C)(C)O)C1(C)C [Compound 4, gerontoxanthone C hydrate] | – | 5.6 to 7.5 µM |
